Assay results: patent publication US11299480B2, “2-arylsulfonamido-N-arylacetamide derivatized STAT3 inhibitors” (University of Hawaii, priority 2017, dated 2022)
Read-outs that look alike come from different tables or passages of the source. Blank lines part the entries; values can stand above or below the compound they belong to.

What was measured:
pJak2 = assay: Stat3-independent signaling, immunoblot of pJak2, MDA-MB-231 cells; type: cell-based, human; details: MDA-MB-231, 5 μM, 24 h treatment
Source text: (§1) FIG. 4. Effects of select compounds of the present invention on Stat3-independent signal transduction events. […] Positions of proteins in gel are labeled; control lane (Con) represents whole-cell lysate prepared from 0.05% DMSO-treated cells.
(§2) All antibodies tested were purchased from Cell Signaling Technology.
(§3) Altogether, the new analogs show strong, albeit variable degrees of inhibition of constitutive Stat3 DNA-binding activity and Tyr phosphorylation in human tumor cells.

pSrc = assay: Stat3-independent signaling, immunoblot of pSrc, MDA-MB-231 cells; type: cell-based, human; details: MDA-MB-231, 5 μM, 24 h treatment
Source text: as §1, §2, §3

pERK1/2 = assay: Stat3-independent signaling, immunoblot of pERK1/2, MDA-MB-231 cells; type: cell-based, human; details: MDA-MB-231, 5 μM, 24 h treatment
Source text: as §1, §2, §3

Stat3 [1] = target: Stat3 (Mus musculus, UniProt P42227); type: biochemical
Sequence of Stat3 (Mus musculus, UniProt P42227) (P42227 2-770 limits assumed): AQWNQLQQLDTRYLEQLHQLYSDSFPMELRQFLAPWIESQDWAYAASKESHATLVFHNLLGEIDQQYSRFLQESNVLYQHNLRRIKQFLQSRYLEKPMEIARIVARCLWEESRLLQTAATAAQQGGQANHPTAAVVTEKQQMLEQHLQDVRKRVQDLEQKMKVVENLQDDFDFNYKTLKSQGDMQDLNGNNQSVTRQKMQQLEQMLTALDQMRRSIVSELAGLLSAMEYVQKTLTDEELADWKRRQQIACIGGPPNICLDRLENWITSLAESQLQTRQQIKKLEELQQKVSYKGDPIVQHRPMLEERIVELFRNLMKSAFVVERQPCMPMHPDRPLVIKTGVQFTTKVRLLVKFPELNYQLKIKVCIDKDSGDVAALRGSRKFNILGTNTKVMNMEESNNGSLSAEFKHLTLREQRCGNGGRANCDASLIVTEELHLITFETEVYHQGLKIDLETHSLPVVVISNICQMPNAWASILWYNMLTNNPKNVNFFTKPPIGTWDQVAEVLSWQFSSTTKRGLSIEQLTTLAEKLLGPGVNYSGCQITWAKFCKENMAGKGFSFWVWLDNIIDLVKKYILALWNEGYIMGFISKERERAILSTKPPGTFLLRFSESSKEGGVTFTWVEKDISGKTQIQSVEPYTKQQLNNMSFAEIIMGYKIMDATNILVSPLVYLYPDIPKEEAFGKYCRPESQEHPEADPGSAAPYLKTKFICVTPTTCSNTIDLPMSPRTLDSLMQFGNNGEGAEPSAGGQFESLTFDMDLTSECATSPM
Method: FIG. 1. Effect of select compounds of the present invention on Stat3 DNA-binding activity in vitro. […] Positions of Stat3:DNA complexes in gel are labeled; control lanes (0) represent nuclear extracts pre-treated with 10% DMSO.
(§4) Except where indicated, nuclear extracts were pre-incubated with compound for 30 min at room temperature prior to incubation with the radiolabeled probe for 30 min at 30° C. before subjecting to EMSA analysis. Where appropriate, bands corresponding to Stat3:DNA complexes were scanned and quantified for each concentration of compound using ImageJ and plotted as percent of control (DMSO) against concentration of compound, from which the IC50 values were derived.

Stat5 = Stat5 DNA-binding activity in vitro, EMSA (MGFe probe); type: biochemical; details: 10 μM or 0-30 μM compound
Source text: FIG. 2. […] Positions of Stat:DNA complexes in gel are labeled; control lanes (0 or Con) represent nuclear extracts pre-treated with 10% DMSO. […] Where appropriate, bands corresponding to Stat3:DNA complexes were scanned and quantified for each concentration of compound using ImageJ and plotted as percent of control (DMSO) against concentration of compound, from which the IC50 values were derived.

in vitro [2] = details: mouse, liver microsomes
in vitro [3] = details: human, liver microsomes
[4] = Aqueous solubility (PBS, SGF, SIF)
Caco-2 cells = assay: Cell membrane permeability, Caco-2 cells assay; details: for Caco-2 Cells Permeability A to B / Caco-2 Cells Recovery A to B: apical to basolateral; for Caco-2 Cells Permeability A to B / Caco-2 Cells Permeability B to A: first number of cell, 10^−6 cm/sec; for Caco-2 Cells Recovery A to B / Caco-2 Cells Recovery B to A: second number of cell; for Caco-2 Cells Permeability B to A / Caco-2 Cells Recovery B to A: basolateral to apical
[5] = Mouse liver microsomal (MLM) metabolic stability; details: mouse, liver microsomes
[6] = Human liver microsomal (HLM) metabolic stability; details: liver microsomes
in vitro [7] = details: human, Caco-2
pY705Stat3 [8] = assay: Constitutive Stat3 tyrosine phosphorylation, immunoblot, MDA-MB-231 cells; type: cell-based, human; details: MDA-MB-231, 5 μM, 1 h treatment
Method: (§5) FIG. 3. Effects of select compounds of the present invention on Stat3 DNA-binding activity and Stat3 tyrosine phosphorylation in cells. (FIG. 3A) EMSA analysis of Stat3 DNA-binding activity in nuclear extracts of equal total protein prepared from cells treated with DMSO (0 as control, Con), 5 or 10 μM of compounds for 1-34 h. Positions of Stat3:DNA complexes in gel are labeled. […] Positions of Stat3:DNA complexes or proteins in gel are shown; control (0 or Con) lane represents whole-cell lysates or nuclear extracts prepared from 0.05% DMSO-treated cells. […] Data are representative of 2-3 independent determinations.
as §2, §3

pY705Stat3 [9] = assay: Constitutive Stat3 tyrosine phosphorylation, immunoblot, MDA-MB-468 cells; type: cell-based, human; details: MDA-MB-468, 5 μM, 1 h treatment (inhibition stated only for MDA-MB-231)
Method: as §5, §2, §3

MDA-MB-231 = assay: CyQuant cell viability assay, MDA-MB-231; type: cell-based, human; details: MDA-MB-231, CyQuant, 0-10 μM, 72 h
Method: (§6) FIG. 6. Effects of select compounds of the present invention on cell viability. […] Cells were first grown in 6-well plates then were treated once with 0-10 μM of the indicated compounds for 72 h. Viable cells were assayed using CyQuant cell proliferation kit and plotted as % cell viability against concentration. Control (0) represents 0.05% DMSO-treated cells. Values, mean ± S.D. of 2-3 independent determinations.
(§7) Cells in 6-well or 96-well plates were treated with or without compounds for the indicated concentrations and time, and subjected to MTT assay or CyQuant cell proliferation assay (Invitrogen/ThermoFisher Scientific), or harvested and the viable cells were counted by trypan blue exclusion with phase-contrast microscopy.
(§8) Constitutive Stat3 activity promotes tumor cell growth and proliferation and survival (Darnell J E (2005) Nat Med. 11:595-6; Bowman T, et al., (2000) Oncogene 19:2474-2488). Some of the compounds of the present invention were tested against tumor cells harboring constitutively-active Stat3.

MDA-MB-468 = assay: CyQuant cell viability assay, MDA-MB-468; type: cell-based, human; details: MDA-MB-468, CyQuant, 0-10 μM, 72 h
Method: as §6, §7, §8

MCF7 = assay: CyQuant cell viability assay, MCF7; type: cell-based, human; details: MCF7 (no aberrantly-active Stat3), CyQuant, 72 h
Method: as §6, §7, §8

Stat1 = Stat1 DNA-binding activity in vitro, EMSA (MGFe probe); type: biochemical; details: 10 μM or 0-30 μM compound
Source text: FIG. 2. Effects of select compounds of the present invention on Stat1 and Stat5 DNA-binding activity. […] Positions of Stat:DNA complexes in gel are labeled; control lanes (0 or Con) represent nuclear extracts pre-treated with 10% DMSO. Data are representative of 1-3 independent determinations. […] Where appropriate, bands corresponding to Stat3:DNA complexes were scanned and quantified for each concentration of compound using ImageJ and plotted as percent of control (DMSO) against concentration of compound, from which the IC50 values were derived. In order to determine the specificity of select new analogs active against Stat3 activity, the inventors investigated the effects on the inhibition of other STAT family members, including Stat1 and Stat5 DNA-binding activity in vitro.

Stat3 [10] = target: Stat3 (Homo sapiens (Human), UniProt P40763); assay: Stat3 DNA-binding activity in nuclear extracts of treated MDA-MB-231 cells, EMSA; type: cell-based; details: 10 μM
Sequence of Stat3 (Homo sapiens (Human), UniProt P40763) (P40763 whole entry): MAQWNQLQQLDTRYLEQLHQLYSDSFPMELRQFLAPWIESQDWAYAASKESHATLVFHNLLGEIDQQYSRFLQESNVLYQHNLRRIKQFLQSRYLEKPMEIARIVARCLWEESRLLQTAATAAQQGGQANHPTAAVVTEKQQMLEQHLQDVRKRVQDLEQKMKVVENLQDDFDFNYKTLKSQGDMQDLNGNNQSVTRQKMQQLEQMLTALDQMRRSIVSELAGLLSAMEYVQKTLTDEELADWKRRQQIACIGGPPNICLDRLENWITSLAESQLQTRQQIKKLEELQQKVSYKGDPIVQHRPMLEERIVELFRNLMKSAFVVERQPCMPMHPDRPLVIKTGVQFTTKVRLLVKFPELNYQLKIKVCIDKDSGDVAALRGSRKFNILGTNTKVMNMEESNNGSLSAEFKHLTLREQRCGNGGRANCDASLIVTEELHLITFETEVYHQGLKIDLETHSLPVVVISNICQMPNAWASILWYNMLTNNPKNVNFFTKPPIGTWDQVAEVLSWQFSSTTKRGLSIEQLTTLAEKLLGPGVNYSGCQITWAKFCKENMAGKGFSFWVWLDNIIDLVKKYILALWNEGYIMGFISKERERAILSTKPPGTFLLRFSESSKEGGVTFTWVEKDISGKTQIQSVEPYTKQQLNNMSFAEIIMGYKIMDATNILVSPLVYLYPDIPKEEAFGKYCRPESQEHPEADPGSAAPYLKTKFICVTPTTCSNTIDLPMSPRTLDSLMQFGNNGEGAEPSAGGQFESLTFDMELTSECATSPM
Method: as §5
as §4, with “The ^32P-labeled oligonucleotide probes used were hSIE (high affinity sis-inducible element from the c-fos gene, m67 variant, 5′-[…]) (SEQ ID NO: 1) that binds Stat1 and Stat3 and MGFe (mammary gland factor element from the bovine β-casein gene promoter, 5′-[…]) (SEQ ID NO: 2) for Stat1 and Stat5 binding. Except” for “Except”
Select compounds of the invention were investigated for their inhibitory effects of the active analogs on intracellular Stat3 signaling. […] Nuclear extracts were prepared and subjected to EMSA analysis for Stat3 DNA-binding activity. […] Stat3 DNA-binding activity in MDA-MB-231 cells was inhibited by both Examples 1 and 5 following treatment at 3 h, with little change at 1 h (FIG. 3A).

[11] = Stat3 DNA-binding activity in vitro, nuclear extracts pre-incubated with compound 30 min at room temperature, hSIE probe, read-out: EMSA IC50
[12] = simulated gastric fluid (SGF), pH 1.2, simulated gastric fluid

half-life (in vitro [2]): 26 min
half-life (in vitro [3]): 54 min
Papp (in vitro [7]): 0.2 ×10⁻⁶ cm/s
Caco-2 Cells Permeability A to B (Caco-2 cells): 0.1
Caco-2 Cells Recovery A to B (Caco-2 cells): 8%
Caco-2 Cells Permeability B to A (Caco-2 cells): 0.1
Caco-2 Cells Recovery B to A (Caco-2 cells): 67%
SMILES: O=C(O)c1ccc(N(Cc2ccc(C3CCOCC3)cc2)C(=O)[C@H]2CCCN2S(=O)(=O)c2c(F)c(F)c(F)c(F)c2F)c(F)c1 [Example 60, (R)-3-Fluoro-4-(1-((perfluorophenyl)sulfonyl)-N-(4-(tetrahydro-2H-pyran-4-yl)benzyl)pyrrolidine-2-carboxamido)benzoic acid]

IC50 (Stat3 [1]; [11]): 7.2 ± 3.4 µM
SMILES: O=C(O)c1ccc(N(Cc2ccc(C3CCCCC3)cc2)C(=O)[C@@H]2CCCN2S(=O)(=O)c2c(F)c(F)c(F)c(F)c2F)cc1O [Example 26, (S)-4-(N-(4-Cyclohexylbenzyl)-1-((pentafluorophenyl)sulfonyl)pyrrolidine-2-carboxamido)-2-hydroxybenzoic acid]
pY705Stat3 levels (pY705Stat3 [8]): inhibited pY705Stat3 levels
pY705Stat3 levels (pY705Stat3 [9]): only inhibited pY705Stat3 levels in MDA-MB-231

solubility (physchem; PBS buffer, pH 7.4, aqueous buffer): 132 µg/mL
solubility (physchem; [12]): 0.4 µg/mL
solubility (physchem; simulated intestinal fluid (SIF), fassgf or other biorelevant): 129 µg/mL
half-life (in vitro [2]): 18 min
half-life (in vitro [3]): 15 min
Papp (in vitro [7]): 0.1 ×10⁻⁶ cm/s
Caco-2 Cells Permeability A to B (Caco-2 cells): 0.2
Caco-2 Cells Recovery A to B (Caco-2 cells): 34%
Caco-2 Cells Permeability B to A (Caco-2 cells): 0.2
Caco-2 Cells Recovery B to A (Caco-2 cells): 60%
SMILES: O=C([O-])c1ccc(N(Cc2ccc(C3CCOCC3)cc2)C(=O)[C@H]2CCCN2S(=O)(=O)c2c(F)c(F)c(F)c(F)c2F)cc1O.[Na+]

IC50 (Stat3 [1]; EMSA, read-out: IC50, inhibition of Stat3 DNA-binding activity in vitro): 2.4 µM
IC50 (Stat3 [1]; [11]): 2.4 ± 0.4 µM
SMILES: O=C(O)c1ccc(N(Cc2ccc(C3CCCCC3)cc2)C(=O)[C@H]2CCCN2S(=O)(=O)c2c(F)c(F)c(F)c(F)c2F)cc1O [Example 25, (R)-4-(N-(4-Cyclohexylbenzyl)-1-((pentafluorophenyl)sulfonyl)pyrrolidine-2-carboxamido)-2-hydroxybenzoic acid]
pY705Stat3 levels (pY705Stat3 [8]): inhibited pY705Stat3 levels
pY705Stat3 levels (pY705Stat3 [9]): only inhibited pY705Stat3 levels in MDA-MB-231
cell viability (MDA-MB-231): suppressed the viability
cell viability (MDA-MB-468): suppressed the viability
cell viability (MCF7): only weakly or not inhibited

Stat3 DNA-binding activity in MDA-MB-231 cells (Stat3 [10]; 1 h treatment): little change
Stat3 DNA-binding activity in MDA-MB-231 cells (Stat3 [10]; 3 h treatment): inhibited
Stat3 DNA-binding activity in MDA-MB-231 cells (Stat3 [10]; 24 h treatment): inhibited
SMILES: C[C@@H](C(=O)N(Cc1ccc(C2CCCCC2)cc1)c1ccc(C(=O)O)c(O)c1)N(C)S(=O)(=O)c1c(F)c(F)c(F)c(F)c1F [Example 5, (S)-4-(N-(4-Cyclohexylbenzyl)-2-((2,3,4,5,6-pentafluoro-N-methylphenyl)sulfonamido)propan-amido)-2-hydroxybenzoic acid]
effect on Stat1 DNA-binding activity (Stat1): inhibited Stat1 activity to a moderate extent

Second part, the compound before the results:

SMILES: Cc1cc(C(=O)O)ccc1N(Cc1ccc(C2CCCCC2)cc1)C(=O)[C@@H](C)N(C)S(=O)(=O)c1c(F)c(F)c(F)c(F)c1F [Example 42, (R)-4-(N-(4-cyclohexylbenzyl)-2-((2,3,4,5,6-pentafluoro-N-methylphenyl)sulfonamido)propanamido)-3-methylbenzoic acid]
effect on pJak2 (pJak2): little effect
effect on pSrc (pSrc): little effect
effect on pERK1/2 (pERK1/2): little effect

SMILES: C[C@H](C(=O)N(Cc1ccc(C2CCOCC2)cc1)c1ccc(C(=O)O)c(O)c1)N(C)S(=O)(=O)c1c(F)c(F)c(F)c(F)c1F [Example 57, (R)-2-Hydroxy-4-(2-((2,3,4,5,6-pentafluoro-N-methylphenyl)sulfonamido)-N-(4-(tetrahydro-2H-pyran-4-yl)benzyl)propanamido)benzoic acid]
IC50 (Stat3 [1]; [11]): 5 ± 0.8 µM
effect on Stat5 DNA-binding activity (Stat5): minimum effect

SMILES: C[C@H](C(=O)N(Cc1ccc(C2CCCCC2)cc1)c1ccc(C(=O)[O-])c(O)c1)N(C)S(=O)(=O)c1c(F)c(F)c(F)c(F)c1F.[Na+]
solubility (physchem; [12]): 1.3 µg/mL
half-life (in vitro [2]): ≤ 5 min
half-life (in vitro [3]): ≤ 5 min
solubility in PBS buffer pH 7.4 [4]: 127 μg/mL
solubility in simulated intestinal fluid (SIF) [4]: 127 µg/mL
Solubility PBS ([4]; PBS buffer pH 7.4): 127 micrograms/milliliter
Solubility SIF ([4]; simulated intestinal fluid): 127 micrograms/milliliter
Caco-2 Cells Permeability A to B (Caco-2 cells): 0
Caco-2 Cells Recovery A to B (Caco-2 cells): 6%
Caco-2 Cells Permeability B to A (Caco-2 cells): 0
Caco-2 Cells Recovery B to A (Caco-2 cells): 2%
Caco-2 permeability (Caco-2 cells; compounds with cyclohexyl group instead of THP ring): no appreciable permeability
Metabolic Stability Half-Life MLM [5]: 5 min
Metabolic Stability Half-Life HLM [6]: 4 min

SMILES: C[C@H](C(=O)N(Cc1ccc(C2CCOCC2)cc1)c1ccc(C(=O)[O-])c(O)c1)N(C)S(=O)(=O)c1c(F)c(F)c(F)c(F)c1F.[Na+] [Example 59, Sodium (R)-2-hydroxy-4-(2-((2,3,4,5,6-pentafluoro-N-methylphenyl)sulfonamido)-N-(4-(tetrahydro-2H-pyran-4-yl)benzyl)propanamido)benzoate]
half-life (in vitro [2]): ≤ 5 min
half-life (in vitro [3]): ≤ 5 min
Papp B→A (in vitro [7]): 0.7 ×10⁻⁶ cm/s
recovery (in vitro [7]): 31%
Caco-2 Cells Recovery B to A (Caco-2 cells): 40%
Metabolic Stability Half-Life MLM [5]: 4 min
Metabolic Stability Half-Life HLM [6]: 5 min
